Reference: patent US20040001791A1, “Composition, method of use, and devices for the treatment of onychomycosis” (priority 2000, published 2004)
Entries after “also recorded” stand apart in the source; their conditions may differ.

Tests used:
[1] = tested on: fungal infected fingernail (onychomycosis); experiment: Topical treatment of a fungal infected fingernail in a patient; format: in vivo, human
Description: The copper sulfate solution was applied to their fingernails for approximately thirty minutes and then allowed to air dry. Excess copper sulfate powder was removed by washing two-three times with water. […] Monthly, the copper sulfate solution was applied as given above to the infected fingernail and to all fingernails on the same hand.
The bandage was applied to the infected nail and secured in place. Care was given to ensure that the solution soaked into the crevice along the edge of the nail bed and cuticle. […] The bandage was worn for two days and then replaced with a clean dry bandage to protect the nail from snagging. The treatment was repeated on Day 31 and again on Day 45; no further treatments were given.

fungal infected toe nail = experiment: Topical treatment of a fungal infected toe nail in a patient; format: in vivo, human; details: aqueous 10% (w/v) solution applied approximately thirty minutes, air dried, washed with water, Example 2 repeated monthly
Description: As the treated nail grew, healthy nail tissue appeared at the base of the nail bed while the infected portion of the nail was pushed off the nail bed and periodically trimmed away. […] A patient diagnosed as having a fungal infected toe nail began treatment by applying with a cotton swab an aqueous 10% (w/v) copper(II)sulfate pentahydrate solution to the infected nail as well as to all nails on the same foot. […] As the treated nail grew, healthy nail tissue appeared at the base of the nail bed while the infected portion of the nail was pushed off the nail bed and periodically trimmed away. […] The infected portion of the patient's nail continued to have a bluish color.

O=S(=O)([O-])[O-].[Cu+2] [copper sulfate]
Nail examination after treatment ([1]; person, right index fingernail, 10% aqueous solution with trace of detergent on bandage worn two days, Day 1, 31, 45, examined Day 132): New pink nail growth was present from the cuticle to a point midway along the nail

O.O.O.O.O.O=S(=O)([O-])[O-].[Cu+2] [copper(II)sulfate pentahydrate]
Outcome of toe nail treatment (spread of fungal infection, nail condition) (fungal infected toe nail): the fungal infection did not spread to healthy nail tissue; also recorded: resulting in a normal healthy nail
Outcome of fingernail treatment (spread of fungal infection, nail condition) ([1]; patient, aqueous 10% (w/v) solution applied approximately thirty minutes, washed, repeated monthly): resulting in a normal healthy nail
